The results in this text go back to US9730949B2, “Angiotensin converting enzyme inhibitors for treating optic neuropathy or congenital optic atrophy” (priority 2012, dated 2017).

Holding throughout (type): in vivo, human
The test system of assay [1] is optic neuropathy or congenital optic atrophy. Briefly: Other ACE inhibitors in patients with the same optic neuropathy or congenital optic atrophy as in Examples 1 to 5. The conditions noted are these: patients as in Examples 1 to 5, similar procedures; present tense, no data. As for the experimental part: Fosinoprilate, trandolaprilate, moexiprilate, quinaprilate, enalaprilate, perindoprilate and benazeprilate, as well as captopril and lisinopril are also tested in patients having the same optic neuropathy or congenital optic atrophy as in Examples 1 to 5 using similar procedures.

In assay [2] the test system is central artery occlusion of the retina. Briefly: Visual acuity after treatment in patients with central artery occlusion of the retina. On the procedure:
FIG. 5 is a fundus photograph of patient four before treatment.
One was administered 2% (w/v) ramprilate in an eye drop formulation twice a day for 3 months, while the other was administered 2% (w/v) ramprilate in via an intravitreal injection ramiprilate in a quantity of 0.1 to 0.2 ml, which was injected once every 15 days for a total of three injections.

Assay [3] concerns toxication by ingestion of methyl alcohol. As to the kind of experiment: Visual acuity after treatment in patients with toxication by ingestion of methyl alcohol. As for the experimental part: 2 patients (SR and WW) suffering from toxication by ingestion of methyl alcohol has bad visual acuity. FIG. 6 is a fluoangiography of SR prior to treatment. FIG. 7 is an optical coherence tomography scan of SR before treatment.
One patient was administered 2% (w/v) ramprilate in an eye drop formulation twice a day for 3 months, while the other patient was administered 2% (w/v) ramprilate in via an intravitreal injection ramiprilate in a quantity of 0.1 to 0.2 ml, which was injected once every 15 days for a total of three injections.

Assay [4] deals with bilateral asymmetric anterior optic neuropathy ischemia. Briefly: Visual acuity after treatment in a patient with anterior optic neuropathy ischemia. The conditions noted are these: patient three; intravitreal 2% (w/v), 0.1 to 0.2 ml, once every 15 days, three injections; 1/10 in both eyes prior to treatment. On the procedure:
FIGS. 3 and 4 show a fluoangiography of MM before treatment.
MM was administered an intravitreal injection of 2% (w/v) ramiprilate in a quantify of 0.1 to 0.2 ml, which was injected once every 15 days for a total of three injections. The visual acuity was then taken and was 5/10 for both eyes.

For assay [5], the system named is dominant recessive congenital optic atrophy. Briefly: Visual acuity after treatment in patients with dominant recessive congenital optic atrophy. To be noted: 2 patients; eye drops 2% (w/v), 2 times per day for 3 months. On the procedure: 2 patients that have dominant recessive congenital optic atrophy had bad visual acuity.
These 2 patients were treated with eye drops containing 2% (w/v) ramiprilate 2 times per day for a duration of 3 months.

The subject of assay [6] is Leber's optic neuropathy. As to the kind of experiment: Visual acuity after treatment in patients with Leber's optic neuropathy. The conditions noted are these: intravitreal 2% (w/v), 0.1 to 0.2 ml, once every 15 days, three injections. As for the experimental part:
Patient two has Leber's optic neuropathy with a visual acuity of 1/20 in the right eye and zero in the left eye prior to treatment.
An intraocular injection (intravitreal) of 2% (w/v) ramiprilate in a quantify of 0.1 to 0.2 ml, which was injected once every 15 days for a total of three injections. The visual acuity was measured after this treatment. The results of 2/10 in the right eye and 1/20 in the left eye were achieved,
Patient one has Leber's optic neuropathy and had only bright perceptions in two eyes. Visual acuity was measured prior to treatment.
An intraocular injection (intravitreal) of 2% (w/v) ramiprilate in a quantity of 0.1 to 0.2 ml, which was infected once every 15 days for a total of three injections. The visual acuity was measured after this treatment. The visual acuity was 2/10 for both eyes.

Turning to `O=C(O)[C@@H]1C[C@@H](C2CCCCC2)CN1C(=O)CP(=O)(O)CCCCc1ccccc1` [Fosinoprilate, fosinoprilate], the visual acuity entry in assay [1] is on record as “improvement in visual acuity”.

For `O=C(O)CN1C(=O)[C@@H](N[C@@H](CCc2ccccc2)C(=O)O)CCc2ccccc21` [benazeprilate], in assay [1], the visual acuity entry is on record as “improvement in visual acuity”.

In the case of `C[C@H](CS)C(=O)N1CCC[C@H]1C(=O)O` [captopril], the visual acuity result in assay [1] was “improvement in visual acuity”.

With `C[C@H](N[C@@H](CCc1ccccc1)C(=O)O)C(=O)N1CCC[C@H]1C(=O)O` [enalaprilate], the visual acuity result in assay [1] was “improvement in visual acuity”.

Take `NCCCC[C@H](N[C@@H](CCc1ccccc1)C(=O)O)C(=O)N1CCC[C@H]1C(=O)O` [lisinopril]: the visual acuity result in assay [1] is listed as “improvement in visual acuity”.

On to `COc1cc2c(cc1OC)CN(C(=O)[C@H](C)N[C@@H](CCc1ccccc1)C(=O)O)[C@H](C(=O)O)C2` [moexiprilate], for which the visual acuity result in assay [1] is reported as “improvement in visual acuity”.

As to `CCC[C@H](N[C@@H](C)C(=O)N1[C@H](C(=O)O)C[C@@H]2CCCC[C@@H]21)C(=O)O` [perindoprilate], in assay [1], the visual acuity result is given as “improvement in visual acuity”.

Consider `C[C@H](N[C@@H](CCc1ccccc1)C(=O)O)C(=O)N1Cc2ccccc2C[C@H]1C(=O)O` [quinaprilate], for which, in assay [1], the visual acuity result is given as “improvement in visual acuity”.

Regarding `CC(NC(CCc1ccccc1)C(=O)O)C(=O)N1C(C(=O)O)CC2CCCC21` (stereo not drawn) [ramiprilate], the “vision as indicated by visual acuity” value in assay [2] (one patient (alpha), eye drop formulation 2% (w/v) twice a day for 3 months) is on record as “improvement in vision”; in assay [2] (other patient (alpha), intravitreal 2% (w/v), 0.1 to 0.2 ml, once every 15 days, three injections), “improvement in vision”; in assay [3] (one patient (beta), eye drop formulation 2% (w/v) twice a day for 3 months), “improvement in vision”; in assay [3] (other patient (beta), intravitreal 2% (w/v), 0.1 to 0.2 ml, once every 15 days, three injections) it was “improvement in vision”; in assay [5], “greatly improved”. The “visual acuity, both eyes, after treatment” value in assay [4] is given as 5/10; in assay [6] (patient one, only bright perceptions in two eyes before) it was 2/10. Moreover, the “visual acuity, right eye, after treatment” value in assay [6] (patient two, 1/20 prior to treatment) is reported as 2/10. For the same molecule, in assay [6] (patient two, zero prior to treatment), the “visual acuity, left eye, after treatment” value is recorded as 1/20.

Regarding `C[C@H](N[C@@H](CCc1ccccc1)C(=O)O)C(=O)N1[C@H](C(=O)O)C[C@H]2CCCC[C@@H]21` [trandolaprilate], in assay [1], the visual acuity result is listed as “improvement in visual acuity”.
